# Source: ChEMBL document CHEMBL1137829, “In vitro anti-parasitic activity of Cyclosporin A analogs on Trypanosoma cruzi” (Bioorg Med Chem Lett, 2004)
# Tests used:
# Trypanosoma cruzi [1] = assay: Compound was tested for the inhibition of Trypanosoma cruzi epimastigote growth after 72 hours of treatment; type: functional, organism-based
# Trypanosoma cruzi [2] = assay: Effective concentration required for the lysis of Trypanosoma cruzi trypomastigotes in blood stream after 24 hours of treatment; type: functional, organism-based
# [3] = Inhibition of Peptidyl-prolyl cis-trans isomerase Trypanosoma cruzi cyclophilin (CL Brener strain, p19)
IC50 (Trypanosoma cruzi [1]; read-out: IC50),EC50 (Trypanosoma cruzi [2]),IC50 [3],IC50 (Trypanosoma cruzi [1]),Structure (SMILES)
33.8 µM,76.1 µM,25.5 nM,,CC[C@@H]1NC(=O)[C@H]([C@H](O)/C(C)=C\CCCOC)N(C)C(=O)[C@H](C(C)C)N(C)C(=O)[C@H](CC(C)C)N(C)C(=O)[C@H](CC(C)C)N(C)C(=O)[C@@H](C)NC(=O)[C@H](C)NC(=O)[C@H](CC(C)C)N(C)C(=O)[C@H](C(C)C)NC(=O)[C@H](CC(C)C)N(C)C(=O)CN(C)C1=O
7.64 µM,58.6 µM,,,CC[C@@H]1NC(=O)[C@H]([C@H](O)/C(C)=C\CCC(=O)OC(C)C)N(C)C(=O)[C@H](C(C)C)N(C)C(=O)[C@H](CC(C)C)N(C)C(=O)[C@H](CC(C)C)N(C)C(=O)[C@@H](C)NC(=O)[C@H](C)NC(=O)[C@H](CC(C)C)N(C)C(=O)[C@H](C(C)C)NC(=O)[C@H](CC(C)C)N(C)C(=O)CN(C)C1=O
10.6 µM,7.98 µM,23.2 nM,,CC[C@@H]1NC(=O)[C@H]([C@H](O)/C(C)=C\CCCN=[N+]=[N-])N(C)C(=O)[C@H](C(C)C)N(C)C(=O)[C@H](CC(C)C)N(C)C(=O)[C@H](CC(C)C)N(C)C(=O)[C@@H](C)NC(=O)[C@H](C)NC(=O)[C@H](CC(C)C)N(C)C(=O)[C@H](C(C)C)NC(=O)[C@H](CC(C)C)N(C)C(=O)CN(C)C1=O
11.4 µM,153 µM,19.3 nM,,CCC/C=C(/C)[C@@H](O)[C@H]1C(=O)N[C@@H](CC)C(=O)N(C)CC(=O)N(C)[C@@H](CC(C)CO)C(=O)N[C@@H](C(C)C)C(=O)N(C)[C@@H](CC(C)C)C(=O)N[C@@H](C)C(=O)N[C@H](C)C(=O)N(C)[C@@H](CC(C)C)C(=O)N(C)[C@@H](CC(C)C)C(=O)N(C)[C@@H](C(C)C)C(=O)N1C (stereo not given in full)
,7.19 µM,,5.39 µM,C/C=C/C[C@@H](C)[C@@H](O)[C@H]1C(=O)N[C@@H](CC)C(=O)N(C)CC(=O)N(C)[C@@H](CC(C)C)C(=O)N[C@@H](C(C)C)C(=O)N(C)[C@@H](CC(C)C)C(=O)N[C@@H](C)C(=O)N[C@H](C)C(=O)N(C)[C@@H](CC(C)C)C(=O)N(C)[C@@H](CC(C)C)C(=O)N(C)[C@@H](C(C)C)C(=O)N1C [CYCLOSPORINE]

# Continued, molecule first:
Structure (SMILES),IC50 (Trypanosoma cruzi [1]; read-out: IC50),EC50 (Trypanosoma cruzi [2]),IC50 [3],IC50 (Trypanosoma cruzi [1])
CCC/C=C(/C)[C@@H](O)[C@H]1C(=O)N[C@@H]([C@@H](C)OCCCO)C(=O)N(C)CC(=O)N(C)[C@@H](CC(C)C)C(=O)N[C@@H](C(C)C)C(=O)N(C)[C@@H](CC(C)C)C(=O)N[C@@H](C)C(=O)N[C@H](C)C(=O)N(C)[C@@H](CC(C)C)C(=O)N(C)[C@@H](CC(C)C)C(=O)N(C)[C@@H](C(C)C)C(=O)N1C,18.4 µM,36.8 µM,22.1 nM,
CC[C@@H]1NC(=O)[C@H]([C@H](O)C(C)C/C=C/c2ccccc2)N(C)C(=O)[C@H](C(C)C)N(C)C(=O)[C@H](CC(C)C)N(C)C(=O)[C@H](CC(C)C)N(C)C(=O)[C@@H](C)NC(=O)[C@H](C)NC(=O)[C@H](CC(C)C)N(C)C(=O)[C@H](C(C)C)NC(=O)[C@H](CC(C)C)N(C)C(=O)CN(C)C1=O (stereo not given in full),0.82 µM,0.97 µM,12.5 nM,
CC[C@@H]1NC(=O)[C@H]([C@H](O)C(C)CCCc2ccccc2)N(C)C(=O)[C@H](C(C)C)N(C)C(=O)[C@H](CC(C)C)N(C)C(=O)[C@H](CC(C)C)N(C)C(=O)[C@@H](C)NC(=O)[C@H](C)NC(=O)[C@H](CC(C)C)N(C)C(=O)[C@H](C(C)C)NC(=O)[C@H](CC(C)C)N(C)C(=O)CN(C)C1=O (stereo not given in full),3.41 µM,2.66 µM,13.3 nM,
C/C=C/CC(C)[C@@H](O)[C@H]1C(=O)N[C@@H](CC)C(=O)N(C)CC(=O)N(C)[C@@H](CC(C)C)C(=O)N[C@@H](C(C)C)C(=O)N(C)[C@@H](CC(C)C)C(=O)N[C@@H](C)C(=O)N[C@H]([C@H](C)O)C(=O)N(C)[C@@H](CC(C)C)C(=O)N(C)[C@@H](CC(C)C)C(=O)N(C)[C@@H](C(C)C)C(=O)N1C (stereo not given in full),6.93 µM,13.4 µM,16.9 nM,
